Results from publication PMC10235067, “Increased renal elimination of endogenous and synthetic pyrimidine nucleosides in concentrative nucleoside transporter 1 deficient mice” (Nature Communications, 2023).
Values joined by “and” are separate entries in the source; they are usually repeats but may differ in a detail not shown here. Identical values can stand only once. Counter-ions that a name gives are not always drawn.

What was measured:
KPC cells = experiment: Survival of mice with orthotopic syngeneic KPC pancreatic tumors treated with dFdC
[1] = Gemcitabine urine pharmacokinetics (renal excretion) in Slc28a1+/+ and Slc28a1-/- mice; settings: for Dose in Urine (% of total dose administered): single i.v. dFdC 50 mg/kg
Method: THU was added to the mouse urine samples upon collection and frozen until analysis. […] Five microliters of the diluted samples were transferred to a 96-well autosampler plate then 10 µL of internal standard mixture was added and mixed. […] The plate was then transferred to the 4 °C autosampler for analysis.
The chromatographic separation was performed on a Thermo Accucore aQ 2.6 µm, 100 ×2.1 mm column at 30 °C using a gradient with a 10 µL injection volume. The mobiles phases were 1 mM ammonium acetate in deionized water pH 6.8 and acetonitrile. The total run time was 5.5 min. […] The LC–MS/MS analysis was conducted on a Thermo Vanquish UHPLC with a TSQ Quantiva mass spectrometer equipped with an electrospray ionization source.

## Nc1ccn([C@@H]2O[C@H](CO)[C@@H](O)C2(F)F)c(=O)n1 [dFdC, Gemcitabine hydrochloride, reference compound]
KPC cells; CNT1 (Slc28a1-/-) Gemcitabine (25mg/ml) group, Fig. 6E source data
  Survival, Days (individual mice): 27 days and 32 days and 35 days and 39 days
KPC cells; CNT1 (Slc28a1-/-) Gemcitabine (37mg/ml) group, Fig. 6E source data
  Survival, Days (individual mice): 30 days and 43 days and 45 days and 46 days
KPC cells; CNT1 (Slc28a1-/-) Gemcitabine group, Fig. 6D source data
  Survival, Days (individual mice): 26 days and 43 days and 35 days and 23 days and 45 days
KPC cells; CNT1 + Gemcitabine (Slc28a1-/-), Fig. 6D source data
  Survival event flag (1 = event, 0 = censored), individual mice: 1
KPC cells; CNT1 Gemcitabine (25mg/ml), Fig. 6E source data, column headed CNT1 + Vehicle
  Survival event flag (1 = event, 0 = censored), individual mice: 1
KPC cells; CNT1 Gemcitabine (37mg/ml), Fig. 6E source data
  Survival event flag (1 = event, 0 = censored), individual mice: 1
KPC cells; Slc28a1+/+ mice, dFdC 25 mg/kg i.v.
  mice remaining healthy at day 45: approximately 66%
KPC cells; Slc28a1+/+ mice, dFdC 25 mg/kg i.v. twice a week, Fig. 6D
  median overall survival: > 50 days
KPC cells; Slc28a1-/- mice, dFdC 25 mg/kg i.v.
  day by which all mice died: ≤ 45 days
KPC cells; Slc28a1-/- mice, dFdC 25 mg/kg i.v. twice a week, Fig. 6D
  median overall survival: 39 days
KPC cells; Slc28a1-/- mice, dFdC 37 mg/kg i.v. twice a week, Fig. 6E
  median overall survival: 42 days
KPC cells; WT + Gemcitabine, Fig. 6D source data
  Survival event flag (1 = event, 0 = censored), individual mice: 0 and 1
KPC cells; WT Gemcitabine group, Fig. 6D source data, event flag in WT + Gemcitabine
  Survival, Days (individual mice): 50 days and 33 days and 45 days
[1]; Figure 5 G, H, I, KO mice, 5 Minutes, individual mice
  Cp (Gemcitabine): 667.756 µg/mL and 701.121 µg/mL and 742.057 µg/mL and 708.576 µg/mL and 1006.774 µg/mL
[1]; Figure 5 G, H, I, KO mice, 10 Minutes, individual mice
  Cp (Gemcitabine): 1196.136 µg/mL and 1117.096 µg/mL and 1176.76 µg/mL and 1333.848 µg/mL and 1383.016 µg/mL and 1407.258 µg/mL
[1]; Figure 5 G, H, I, KO mice, 15 Minutes, individual mice
  Cp (Gemcitabine): 1417.457 µg/mL and 1463.209 µg/mL and 1417.045 µg/mL and 1464.236 µg/mL and 1528.485 µg/mL and 1605.582 µg/mL
[1]; Figure 5 G, H, I, KO mice, 30 Minutes, individual mice
  Cp (Gemcitabine): 1020.435 µg/mL and 1043.589 µg/mL and 1004.789 µg/mL and 686.314 µg/mL and 637.597 µg/mL
[1]; Figure 5 G, H, I, KO mice, 60 Minutes, individual mice
  Cp (Gemcitabine): 806.557 µg/mL and 703.249 µg/mL and 814.631 µg/mL and 838.872 µg/mL and 677.262 µg/mL
[1]; Figure 5 G, H, I, KO mice, 120 Minutes, individual mice
  Cp (Gemcitabine): 1007.916 µg/mL and 1001.638 µg/mL and 923.671 µg/mL and 928.827 µg/mL and 1022.245 µg/mL
[1]; Figure 5 G, H, I, KO mice, 240 Minutes, individual mice
  Cp (Gemcitabine): 131.108 µg/mL and 117.705 µg/mL and 128.911 µg/mL and 104.939 µg/mL and 51.416 µg/mL and 148.894 µg/mL
[1]; Figure 5 G, H, I, WT mice, 5 Minutes, individual mice
  Cp (Gemcitabine): 473.332 µg/mL and 486.741 µg/mL and 465.952 µg/mL and 485.933 µg/mL and 493.479 µg/mL
[1]; Figure 5 G, H, I, WT mice, 10 Minutes, individual mice
  Cp (Gemcitabine): 654.272 µg/mL and 654.234 µg/mL and 642.732 µg/mL and 677.281 µg/mL and 755.524 µg/mL
[1]; Figure 5 G, H, I, WT mice, 15 Minutes, individual mice
  Cp (Gemcitabine): 869.257 µg/mL and 882.561 µg/mL and 865.564 µg/mL and 871.549 µg/mL and 735.964 µg/mL
[1]; Figure 5 G, H, I, WT mice, 30 Minutes, individual mice
  Cp (Gemcitabine): 865.074 µg/mL and 694.859 µg/mL and 1051.246 µg/mL and 934.229 µg/mL and 1018.271 µg/mL
[1]; Figure 5 G, H, I, WT mice, 60 Minutes, individual mice
  Cp (Gemcitabine): 691.965 µg/mL and 701.388 µg/mL and 530.199 µg/mL and 662.975 µg/mL and 688.86 µg/mL
[1]; Figure 5 G, H, I, WT mice, 120 Minutes, individual mice
  Cp (Gemcitabine): 410.29 µg/mL and 371.477 µg/mL and 406.197 µg/mL and 640.633 µg/mL and 369.675 µg/mL
[1]; Figure 5 G, H, I, WT mice, 240 Minutes, individual mice
  Cp (Gemcitabine): 394.084 µg/mL and 419.478 µg/mL and 409.47 µg/mL and 387.436 µg/mL and 378.97 µg/mL
[1]; Slc28a1+/+ mice
  Dose in Urine (% of total dose administered): 7.53%
[1]; Slc28a1-/- mice
  Dose in Urine (% of total dose administered): 13.73%
[1]; mouse, urine, intravenous, 50 mg/kg, Cp (Gemcitabine), Figure 5 G, H, I, KO mice, 5 Minutes, individual mice
  concentration at 5 min: 690 µg/mL
[1]; mouse, urine, intravenous, 50 mg/kg, Cp (Gemcitabine), Figure 5 G, H, I, KO mice, 30 Minutes, individual mice
  concentration at 30 min: 995 µg/mL
[1]; mouse, urine, intravenous, 50 mg/kg, Cp (Gemcitabine), Figure 5 G, H, I, KO mice, 60 Minutes, individual mice
  concentration at 60 min: 801 µg/mL
[1]; mouse, urine, intravenous, 50 mg/kg, Cp (Gemcitabine), Figure 5 G, H, I, KO mice, 120 Minutes, individual mice
  concentration at 120 min: 977 µg/mL
[1]; mouse, urine, intravenous, 50 mg/kg, Cp (Gemcitabine), Figure 5 G, H, I, WT mice, 5 Minutes, individual mice
  concentration at 5 min: 447 µg/mL
